Reference: patent US11345885B2, “Agent for inducing callus and method for inducing callus” (RIKEN, priority 2014, dated 2022)

How the values were obtained:
[1] = system: hypocotyl of Arabidopsis (Columbia); assay: Functional analysis of putative fipexide metabolites, morphological observation of cut hypocotyl on 1/2 MS medium; assay type: cell-based; conditions: for callus induction activity: 0, 5, 15, 30, 45 or 60 μM in 1/2 MS medium, hypocotyl
Source text: Fipexide is a compound formed by an amide bond between 4-chlorophenoxyacetic acid and 1-piperonylpiperazine, and fipexide is deduced to be non-enzymatically hydrolyzed in a plant. Thus, treatment with 4-chlorophenoxyacetic acid or 1-piperonylpiperazine alone or treatment with both thereof was attempted.
Arabidopsis (Columbia) was allowed to germinate under weak lighting conditions for 7 days, the hypocotyl cut therefrom was placed on a ½ MS medium supplemented with 4-chlorophenoxyacetic acid and/or 1-piperonylpiperazine at 0, 5, 15, 30, 45, or 60 μM, and morphological observation thereof was conducted.

[2] = system: germinated Eucalyptus seeds; assay: Fipexide activity test using other plants: Eucalyptus seeds in fipexide medium; assay type: in vivo
Procedure: (§1) As with the case of Arabidopsis germination conditions, plants were cultured in a fipexide medium with the use of sterilized seeds.

tomato seed (Micro-Tom) = assay: Fipexide activity test using other plants: tomato seed in fipexide medium; assay type: in vivo
Procedure: as §1

soybean seed (Tsurunoko) = assay: Fipexide activity test using other plants: soybean seed in fipexide medium; assay type: in vivo
Procedure: as §1

[3] = system: root organ of Arabidopsis (Columbia); assay: Callus induction and redifferentiation by treatment with fipexide (cut root organ); assay type: cell-based; conditions: fipexide 45 μM for 2 weeks
Procedure: The root organ of Arabidopsis (Columbia) was cut, treated in a ½ MS medium supplemented with fipexide at 45 μM for 2 weeks to induce a callus, and then cultured in a redifferentiation medium (auxin/cytokinine). […] In contrast, the root organ of Arabidopsis (Columbia) was cut and then cultured in the redifferentiation medium without callus induction. As a result, redifferentiation was not observed (FIG. 2B).

Arabidopsis hypocotyl = assay: Comparison of fipexide with conventional technique (2,4-D/kinetin) for callus induction; assay type: cell-based; conditions: fipexide 45 μM vs 2,4-dichlorophenoxyacetic acid 2.26 μM and kinetin 0.465 μM, constant lighting, 87 days
Procedure: Callus induction in Arabidopsis that was carried out at the optimized auxin/cytokinine concentration (i.e., 2,4-dichlorophenoxyacetic acid at 2.26 μM and kinetin at 0.465 μM) was compared with callus induction that was carried out at the fipexide concentration of 45 μM.

[4] = system: stalks and roots of wild-type Populus; assay: Fipexide callus induction and redifferentiation in stalks and roots of Populus; assay type: cell-based
Procedure: The induced callus was cultured in a redifferentiation medium (i.e., a MS medium (0.9% agarose and 1.5% sucrose) containing auxin (indoleacetic acid) at 0.15 mg/1 and cytokinine (N^6-2-isopentenyladenine) at 0.5 mg/l or a ½ MS medium (0.9% Phytoagar (agarose for plants) and 0.2% sucrose) containing 3-indolebutyric acid (IBA) at 0.1 mg/l and 6-benzylaminopurine (BAP) at 0.2 mg/l).
The conditions of the aseptic stalk (which is not the hypocotyl) and the root organ sections of wild-type Populus 30 days after cutting in the presence of fipexide are shown at the center of FIG. 7, and the conditions thereof 30 days after the medium was exchanged with a fresh redifferentiation medium are shown on the right of FIG. 7.

[5] = system: Arabidopsis (Columbia) wild-type seeds; assay: Morphological observation of Arabidopsis (Columbia) by treatment with fipexide (seeds sowed in 1/2 MS medium); assay type: in vivo; conditions: for callus formation (site): 1/2 MS medium, seeds
Procedure: Wild-type seeds of Arabidopsis (Columbia) were sowed in a ½ MS medium supplemented with fipexide at 0, 15, 30, or 45 μM, and morphological observation was conducted.

[6] = system: wild-type rice (Nipponbare); assay: Fipexide activity test using other plants: rice seeds in fipexide medium; assay type: in vivo
Procedure: as §1

[7] = system: Populus stalk samples (Populus tremula x tremuloides T89); assay: Transformation by the Agrobacterium method utilizing callus induction caused by fipexide; assay type: cell-based
Procedure: Under general callus induction conditions for Populus, callus induction was conducted with the use of fipexide instead of auxin/cytokinine, and whether or not Agrobacterium-infected callus was transformed was examined. The GUS gene was introduced into a pH35GS binary vector comprising a Gateway cassette (Kubo M. et al., Genes & Dev., 19, 1855-1860, 2005) (manufactured by […] Innovations Inc.; Production code: IN3-VEC17) using the Gateway system, and the resulting binary vector was used for the Agrobacterium method, so as to confirm infection. 1. From young plants of aseptically cultured Populus (Populus tremula x tremuloides […]) that had been grown in pots, stalk samples (length: 5 mm) were cut. 2. The stalk samples were cultured in the presence of Agrobacterium (for 3 days, in the dark, at 22° C.). 3. After Agrobacterium was washed away, the stalk samples were placed on MS1 medium or modified MS1 medium (containing 30 μM fipexide instead of 3-indolebutyric acid (IBA) and 6-benzylaminopurine (BAP)) and cultured at 25° C. 4. […] Two months after the initiation of callus induction culture, 23 calluses were fixed in 90% (w/w) acetone at -30° C. overnight, the samples were washed twice with 50 mM PBS buffer (pH 7.0), and the samples were subjected to incubation in GUS substrate solution at 37° C. for 15 minutes for staining.

[8] = system: cucumber seed (Natsu Suzumi); assay: Fipexide activity test using other plants: cucumber seed in fipexide medium; assay type: in vivo
Procedure: as §1

[9] = system: African violet leaf explants; conditions: cited from earlier work

| Structure (SMILES) | callus induction activity [1] | leaf area ([1]; treatment alone) | number and length of lateral roots ([1]; treatment alone) | callus induction [2] | callus induction (tomato seed (Micro-Tom)) | callus induction (soybean seed (Tsurunoko)) | redifferentiation in redifferentiation medium (auxin/cytokinine) after callus induction [3] | callus induction efficiency compared with optimized auxin/cytokinine (Arabidopsis hypocotyl) | redifferentiation of the induced callus in redifferentiation medium ([4]; MS medium with indoleacetic acid 0.15 mg/l and N6-2-isopentenyladenine 0.5 mg/l, or 1/2 MS medium with IBA 0.1 mg/l and BAP 0.2 mg/l) | callus induction ([4]; stalks and roots of Populus in fipexide medium) | callus formation (site) ([5]; fipexide 15 μM (low concentration)) | callus formation (site) ([5]; fipexide 45 μM (high concentration)) | callus formation in the root ([5]; fipexide at high concentration) | callus formation ([6]; fipexide 45 μM, 30 days after seed germination) | callus induction ([6]; germinated rice seeds, fipexide medium) | GUS activity in calluses (transformation) ([7]; 23 calluses, two months after initiation of callus induction culture, 30 μM fipexide) | callus formation on the fourth week ([7]; Agrobacterium-treated stalk samples, 25° C., modified MS1 medium with 30 μM fipexide vs conventional MS1 medium) | callus induction [8] | callus formation efficiency [9] | number of days required from implanting of explants to callus formation, and formation of adventitious shoots and adventitious roots ([9]; treatment at a particular concentration) |
| --- | --- | --- | --- | --- | --- | --- | --- | --- | --- | --- | --- | --- | --- | --- | --- | --- | --- | --- | --- | --- |
| c1cc2c(cc1CN1CCNCC1)OCO2 [1-piperonylpiperazine, 1-(3,4-methylenedioxybenzyl)piperazine] | callus induction activity was not observed | enlarged | increased |  |  |  |  |  |  |  |  |  |  |  |  |  |  |  |  |  |
| O=C(COc1ccc(Cl)cc1)N1CCN(Cc2ccc3c(c2)OCO3)CC1 [fipexide, 1-[(p-chlorophenoxy)acetyl]-4-piperonylpiperazine] | callus induction activity was observed |  |  | callus induction was observed | callus induction was observed | callus induction was observed | redifferentiation was observed | higher than that attained at the optimized auxin/cytokinine concentration | redifferentiation was observed | callus induction was observed in the stalks and the roots | callus formation was mainly observed in the root | in the shoot apex | suppressed | Callus formation was observed | callus induction was observed | GUS activity was observed in all samples | many calluses were formed | callus induction was observed |  |  |
| O=C(O)COc1ccc(Cl)cc1 [4-chlorophenoxyacetic acid] | callus induction activity was observed |  |  |  |  |  |  |  |  |  |  |  |  |  |  |  |  |  | not high | reduced |
